Data as given in US8530489B2 (Vertex Pharmaceuticals Incorporated, priority 2006, dated 2013).
pKi: −log10 of the molar value.

molecular target: PLK1 (Homo sapiens, UniProt P53350); assay: PLK1 Inhibition Assay I (radioactive-phosphate incorporation); type: biochemical; settings: Ki(app); PLK1 Inhibition Assay I or II (table does not say which)
Experimental: The compounds of the present invention are evaluated as inhibitors of human PLK kinase using the following assays.
Compounds were screened for their ability to inhibit PLK1 using a radioactive-phosphate incorporation assay. Assays were carried out in a mixture of 25 mM HEPES (pH 7.5), 10 mM MgCl2, and 1 mM DTT. Final substrate concentrations were 350 μM [γ-33P]ATP (136 mCi 33P ATP/mmol ATP, Amersham Pharmacia Biotech/Sigma Chemicals) and 450 μM peptide (KKKISDELMDATFADQEAK) [SEQ. ID:1]. Assays were carried out at 25° C. in the presence of 2 nM PLK1. An assay stock buffer solution was prepared containing all of the reagents listed above, with the exception of ATP and the test compound of interest. 30 μL of the stock solution was placed in a 96 well plate followed by addition of 2 μL of DMSO stock containing serial dilutions of the test compound (typically starting from a final concentration of 10 μM with 2-fold serial dilutions) in duplicate (final DMSO concentration 5%). The plate was pre-incubated for 10 minutes at 25° C. and the reaction initiated by addition of 8 μL [γ-33P]ATP (final concentration 350 μM).
The reaction was stopped after 240 minutes by the addition of 100 μL 0.14M phosphoric acid. A multiscreen phosphocellulose filter 96-well plate (Millipore, Cat No. MAPHN0B50) was pretreated with 100 μL 0.1 M phosphoric acid prior to the addition of 125 μL of the stopped assay mixture. The plate was washed with 4×200 μL 0.1 M phosphoric acid. After drying, 100 μL Optiphase ‘SuperMix’ liquid scintillation cocktail (Perkin Elmer) was added to the well prior to scintillation counting (1450 Microbeta Liquid Scintillation Counter, Wallac).
After removing mean background values for all of the data points, Ki(app) data were calculated from non-linear regression analysis of the initial rate data using the Prism software package (GraphPad Prism version 3.0cx for Macintosh, GraphPad Software, San Diego Calif., USA).

Sequence of PLK1 (P53350 whole entry): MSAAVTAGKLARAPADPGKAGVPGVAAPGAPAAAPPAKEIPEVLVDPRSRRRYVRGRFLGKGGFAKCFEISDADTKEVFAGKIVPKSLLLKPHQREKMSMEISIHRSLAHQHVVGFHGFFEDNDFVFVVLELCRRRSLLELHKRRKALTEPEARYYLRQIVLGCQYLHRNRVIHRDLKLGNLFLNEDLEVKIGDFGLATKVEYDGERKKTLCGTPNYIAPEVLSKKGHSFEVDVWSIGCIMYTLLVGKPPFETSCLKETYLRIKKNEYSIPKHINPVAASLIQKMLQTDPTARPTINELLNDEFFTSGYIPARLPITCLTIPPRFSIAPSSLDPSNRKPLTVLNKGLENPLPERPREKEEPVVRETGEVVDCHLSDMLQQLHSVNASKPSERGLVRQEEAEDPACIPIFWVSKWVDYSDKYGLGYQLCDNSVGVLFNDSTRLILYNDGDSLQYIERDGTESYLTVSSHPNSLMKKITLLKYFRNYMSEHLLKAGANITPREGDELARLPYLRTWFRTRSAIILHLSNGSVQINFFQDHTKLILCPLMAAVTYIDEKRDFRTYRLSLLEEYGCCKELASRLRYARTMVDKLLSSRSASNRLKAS

pKi	Structure (SMILES)
< 7.40	CC(=O)NCCNc1ncc(C#N)c(-c2c[nH]c3ncc(C(F)(F)F)cc23)n1 [Compound I-40, N-(2-(5-cyano-4-(5-(trifluoromethyl)-1H-pyrrolo[2,3-b]pyridin-3-yl)pyrimidin-2-ylamino)ethyl)acetamide]
> 8.52	COc1ccc(C(C)Nc2ncc(C#N)c(-c3c[nH]c4ncc(C(F)(F)F)cc34)n2)cn1 (stereo not drawn) [Compound I-52, 2-(1-(6-methoxypyridin-3-yl)ethylamino)-4-(5-(trifluoromethyl)-1H-pyrrolo[2,3-b]pyridin-3-yl)pyrimidine-5-carbonitrile]
> 8.52	C[C@@H](Nc1ncc(C#N)c(-c2c[nH]c3ncc(C(F)(F)F)cc23)n1)[C@H]1CC[C@H](O)CC1 [Compound I-179, 2-((R)-1-((1r,4R)-4-hydroxycyclohexyl)ethylamino)-4-(5-(trifluoromethyl)-1H-pyrrolo[2,3-b]pyridin-3-yl)pyrimidine-5-carbonitrile]
> 8.52	CC(Nc1ncc(C#N)c(-c2c[nH]c3ncc(C(F)(F)F)cc23)n1)C1(F)CCN(C(=O)[C@@H](C)O)CC1 (stereo partly drawn) [Compound I-237, 2-(1-(4-fluoro-1-((R)-2-hydroxypropanoyl)piperidin-4-yl)ethylamino)-4-(5-(trifluoromethyl)-1H-pyrrolo[2,3-b]pyridin-3-yl)pyrimidine-5-carbonitrile]
7.40 to 8.52	CC[C@@H](C)[C@@H](CO)Nc1ncc(C#N)c(-c2c[nH]c3ncc(C(F)(F)F)cc23)n1 [Compound I-116, 2-((2S,3R)-1-hydroxy-3-methylpentan-2-ylamino)-4-(5-(trifluoromethyl)-1H-pyrrolo[2,3-b]pyridin-3-yl)pyrimidine-5-carbonitrile]
< 7.40	CC(C)(C)OC(=O)N1CCC(CNc2ncc(C#N)c(-c3c[nH]c4ncc(C(F)(F)F)cc34)n2)CC1 [Compound I-28, tert-butyl 4-((5-cyano-4-(5-(trifluoromethyl)-1H-pyrrolo[2,3-b]pyridin-3-yl)pyrimidin-2-ylamino)methyl)piperidine-1-carboxylate]
7.40 to 8.52	N#Cc1cnc(NCc2ccc(-n3cncn3)cc2)nc1-c1c[nH]c2ncc(C(F)(F)F)cc12 [Compound I-55, 2-(4-(1H-1,2,4-triazol-1-yl)benzylamino)-4-(5-(trifluoromethyl)-1H-pyrrolo[2,3-b]pyridin-3-yl)pyrimidine-5-carbonitrile]
7.40 to 8.52	N#Cc1cnc(NC2CCC(O)CC2)nc1-c1c[nH]c2ncc(C(F)(F)F)cc12 (stereo not drawn) [Compound I-95, 2-(4-hydroxycyclohexylamino)-4-(5-(trifluoromethyl)-1H-pyrrolo[2,3-b]pyridin-3-yl)pyrimidine-5-carbonitrile]
7.40 to 8.52	CC(Nc1ncc(C#N)c(-c2c[nH]c3ncc(C(F)(F)F)cc23)n1)[C@H]1C[C@H](O)C1 (stereo partly drawn) [Compound I-269, 2-((S)-1-((1r,3S)-3-hydroxycyclobutyl)ethylamino)-4-(5-(trifluoromethyl)-1H-pyrrolo[2,3-b]pyridin-3-yl)pyrimidine-5-carbonitrile]
> 8.52	CC(Nc1ncc(C#N)c(-c2c[nH]c3ncc(C(F)(F)F)cc23)n1)c1ccc(N(C)C)nc1 (stereo not drawn) [Compound I-143, 2-(1-(6-(dimethylamino)pyridin-3-yl)ethylamino)-4-(5-(trifluoromethyl)-1H-pyrrolo[2,3-b]pyridin-3-yl)pyrimidine-5-carbonitrile]
< 7.40	COc1cccc(Sc2ncc(C#N)c(-c3c[nH]c4ncc(C(F)(F)F)cc34)n2)c1 [II-11, 2-(3-methoxyphenylthio)-4-(5-(trifluoromethyl)-1H-pyrrolo[2,3-b]pyridin-3-yl)pyrimidine-5-carbonitrile]
7.40 to 8.52	N#Cc1cnc(NCCO)nc1-c1c[nH]c2ncc(C(F)(F)F)cc12 [Compound I-109, 2-(2-hydroxyethylamino)-4-(5-(trifluoromethyl)-1H-pyrrolo[2,3-b]pyridin-3-yl)pyrimidine-5-carbonitrile]
> 8.52	CC(Nc1ncc(C#N)c(-c2c[nH]c3ncc(C(F)(F)F)cc23)n1)c1ccc(S(C)(=O)=O)cc1 (stereo not drawn) [Compound I-155, 2-(1-(4-(methylsulfonyl)phenyl)ethylamino)-4-(5-(trifluoromethyl)-1H-pyrrolo[2,3-b]pyridin-3-yl)pyrimidine-5-carbonitrile]
7.40 to 8.52	N#Cc1cnc(NCC2(O)CCCCC2)nc1-c1c[nH]c2ncc(C(F)(F)F)cc12 [Compound I-49, 2-((1-hydroxycyclohexyl)methylamino)-4-(5-(trifluoromethyl)-1H-pyrrolo[2,3-b]pyridin-3-yl)pyrimidine-5-carbonitrile]
> 8.52	CC(=O)Nc1ccc(C(C)Nc2ncc(C#N)c(-c3c[nH]c4ncc(C(F)(F)F)cc34)n2)cc1 (stereo not drawn) [Compound I-121, N-(4-(1-(5-cyano-4-(5-(trifluoromethyl)-1H-pyrrolo[2,3-b]pyridin-3-yl)pyrimidin-2-ylamino)ethyl)phenyl)acetamide]
> 8.52	CCC(Nc1ncc(C#N)c(-c2c[nH]c3ncc(C(F)(F)F)cc23)n1)C1CCN(S(=O)(=O)CC)CC1 (stereo not drawn) [Compound I-175, 2-(1-(1-(ethylsulfonyl)piperidin-4-yl)propylamino)-4-(5-(trifluoromethyl)-1H-pyrrolo[2,3-b]pyridin-3-yl)pyrimidine-5-carbonitrile]
> 8.52	CC[C@H](O)C(=O)N1CCC([C@@H](C)Nc2ncc(C#N)c(-c3c[nH]c4ncc(C(F)(F)F)cc34)n2)CC1 [Compound I-217, 2-((R)-1-(1-((S)-2-hydroxybutanoyl)piperidin-4-yl)ethylamino)-4-(5-(trifluoromethyl)-1H-pyrrolo[2,3-b]pyridin-3-yl)pyrimidine-5-carbonitrile]
> 8.52	CC(=O)N[C@H]1CC[C@H]([C@@H](C)Nc2ncc(C#N)c(-c3c[nH]c4ncc(C(F)(F)F)cc34)n2)CC1 [Compound I-208, N-((1R,4r)-4-((1R)-1-(5-cyano-4-(5-(trifluoromethyl)-1H-pyrrolo[2,3-b]pyridin-3-yl)pyrimidin-2-ylamino)ethyl)cyclohexyl)acetamide]
7.40 to 8.52	C[C@@H](Nc1ncc(C#N)c(-c2c[nH]c3ncc(C(F)(F)F)cc23)n1)C(=O)NC1CCCC1O (stereo partly drawn) [IA-13, (2R)-2-(5-cyano-4-(5-(trifluoromethyl)-1H-pyrrolo[2,3-b]pyridin-3-yl)pyrimidin-2-ylamino)-N-(2-hydroxycyclopentyl)propanamide]
> 8.52	C[C@@H](Nc1ncc(C#N)c(-c2c[nH]c3ncc(C(F)(F)F)cc23)n1)c1ccc(S(N)(=O)=O)cc1 [Compound I-196, 4-((1R)-1-(5-cyano-4-(5-(trifluoromethyl)-1H-pyrrolo[2,3-b]pyridin-3-yl)pyrimidin-2-ylamino)ethyl)benzenesulfonamide]
7.40 to 8.52	CC(C)[C@H](CN1CCOCC1)Nc1ncc(C#N)c(-c2c[nH]c3ncc(C(F)(F)F)cc23)n1 [Compound I-128, 2-((R)-3-methyl-1-morpholinobutan-2-ylamino)-4-(5-(trifluoromethyl)-1H-pyrrolo[2,3-b]pyridin-3-yl)pyrimidine-5-carbonitrile]
> 8.52	C[C@@H](Nc1ncc(C#N)c(-c2c[nH]c3ncc(C(F)(F)F)cc23)n1)[C@H]1CC[C@H](NS(C)(=O)=O)CC1 (single isomer, unassigned) [Compound I-202]
> 8.52	C[C@@H](Nc1ncc(C#N)c(-c2c[nH]c3ncc(C(F)(F)F)cc23)n1)C1CCCCC1 [Compound I-61, 2-((R)-1-cyclohexylethylamino)-4-(5-(trifluoromethyl)-1H-pyrrolo[2,3-b]pyridin-3-yl)pyrimidine-5-carbonitrile]
7.40 to 8.52	CC(Nc1ncc(C#N)c(-c2c[nH]c3ncc(C(F)(F)F)cc23)n1)c1ccc(N2CCN(C(=O)OC(C)(C)C)CC2)cc1 (stereo not drawn) [Compound I-123, tert-butyl 4-(4-(1-(5-cyano-4-(5-(trifluoromethyl)-1H-pyrrolo[2,3-b]pyridin-3-yl)pyrimidin-2-ylamino)ethyl)phenyl)piperazine-1-carboxylate]
> 8.52	CC(=O)C(=O)N1CCC([C@@H](C)Nc2ncc(C#N)c(-c3c[nH]c4ncc(C(F)(F)F)cc34)n2)CC1 [Compound I-231, 2-((R)-1-(1-(2-oxopropanoyl)piperidin-4-yl)ethylamino)-4-(5-(trifluoromethyl)-1H-pyrrolo[2,3-b]pyridin-3-yl)pyrimidine-5-carbonitrile]
> 8.52	C[C@@H](Nc1ncc(C#N)c(-c2c[nH]c3ncc(C(F)(F)F)cc23)n1)C1CCN(C(=O)[C@H]2C[C@@H](O)CN2)CC1 [Compound I-262, 2-((R)-1-(1-((2R,4R)-4-hydroxypyrrolidine-2-carbonyl)piperidin-4-yl)ethylamino)-4-(5-(trifluoromethyl)-1H-pyrrolo[2,3-b]pyridin-3-yl)pyrimidine-5-carbonitrile]
7.40 to 8.52	CC(Nc1ncc(C#N)c(-c2c[nH]c3ncc(C(F)(F)F)cc23)n1)c1ccc(O[C@@H]2CCN(C)C2)nc1 (stereo partly drawn) [Compound I-271, 2-(1-(6-((R)-1-methylpyrrolidin-3-yloxy)pyridin-3-yl)ethylamino)-4-(5-(trifluoromethyl)-1H-pyrrolo[2,3-b]pyridin-3-yl)pyrimidine-5-carbonitrile]
